Experimental data reported in ChEMBL document CHEMBL5236645, “Novel imidazo[1,5-a]quinoxaline derivatives: SAR, selectivity and modeling challenges en route to the identification of an α5-GABAA receptor NAM” (Bioorg Med Chem Lett, 2023).

Tests used:
[1] = molecular target: T1, Gamma-aminobutyric acid receptor subunit alpha-5 (Homo sapiens, UniProt P31644); test: Displacement of flumazenil from alpha5 GABAA receptor (unknown origin)
T1 sequence (P31644 whole entry): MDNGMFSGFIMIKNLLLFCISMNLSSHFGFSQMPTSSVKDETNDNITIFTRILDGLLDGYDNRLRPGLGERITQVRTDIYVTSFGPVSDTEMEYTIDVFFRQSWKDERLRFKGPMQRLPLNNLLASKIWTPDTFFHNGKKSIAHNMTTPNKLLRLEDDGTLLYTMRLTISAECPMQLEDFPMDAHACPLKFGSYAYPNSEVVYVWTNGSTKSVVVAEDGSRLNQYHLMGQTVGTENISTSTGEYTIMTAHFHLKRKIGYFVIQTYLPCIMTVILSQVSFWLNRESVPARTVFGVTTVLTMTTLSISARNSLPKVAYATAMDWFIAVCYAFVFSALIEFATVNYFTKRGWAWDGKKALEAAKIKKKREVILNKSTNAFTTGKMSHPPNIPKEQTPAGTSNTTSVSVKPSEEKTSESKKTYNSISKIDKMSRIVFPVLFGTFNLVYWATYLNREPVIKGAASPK

[2] = molecular target: T2, Gamma-aminobutyric acid receptor subunit alpha-1 (Homo sapiens, UniProt P14867); test: Displacement of flumazenil from alpha1 GABAA receptor (unknown origin)
T2 sequence (P14867 whole entry): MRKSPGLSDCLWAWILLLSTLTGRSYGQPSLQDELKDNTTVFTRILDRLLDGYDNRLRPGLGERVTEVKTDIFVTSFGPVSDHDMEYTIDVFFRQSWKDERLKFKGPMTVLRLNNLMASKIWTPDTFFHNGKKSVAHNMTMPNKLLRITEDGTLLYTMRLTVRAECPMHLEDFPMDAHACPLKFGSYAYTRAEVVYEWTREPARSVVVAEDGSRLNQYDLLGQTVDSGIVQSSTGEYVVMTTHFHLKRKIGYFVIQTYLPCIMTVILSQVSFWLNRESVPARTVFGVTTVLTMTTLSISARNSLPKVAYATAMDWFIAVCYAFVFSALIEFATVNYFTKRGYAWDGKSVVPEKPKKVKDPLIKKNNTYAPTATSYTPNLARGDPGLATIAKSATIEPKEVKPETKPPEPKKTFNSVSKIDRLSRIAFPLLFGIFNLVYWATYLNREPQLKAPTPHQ

[3] = molecular target: T3, Gamma-aminobutyric acid receptor subunit alpha-5 (Homo sapiens) (UniProt P31644); test: Displacement of flumazenil from alpha5 GABAA receptor (unknown origin) at 1 uM relative to control
T3 sequence (whole entry): T1 sequence (P31644 whole entry)

[4] = molecular target: T2, Gamma-aminobutyric acid receptor subunit alpha-1; test: Negative allosteric modulation of alpha1 GABAA (unknown origin)
[5] = molecular target: T1, Gamma-aminobutyric acid receptor subunit alpha-5; test: Negative allosteric modulation of alpha5 GABAA (unknown origin)
[6] = molecular target: T3, Gamma-aminobutyric acid receptor subunit alpha-5 (Homo sapiens); test: Displacement of flumazenil from alpha5 GABAA receptor (unknown origin) at 10 uM relative to control; settings: filed as modulator

Ki [1] [nM]	Ki [2] [nM]	SMILES	other results
28	32	O=c1c2cncn2c2ccccc2n1Cc1cccnc1	
138	420	O=c1c2cncn2c2c(Cl)cc(Cl)cc2n1Cc1cccnc1	
122		O=c1c2cncn2c2cccnc2n1Cc1cccnc1	
89	76	O=c1c2cncn2c2ccc(Br)cc2n1Cc1cccnc1	
210	310	CC(C)(C)c1ccc2c(c1)n(Cc1cccnc1)c(=O)c1cncn12	
11	15	O=c1c2cncn2c2ccc(Cl)cc2n1Cc1cccnc1	
86	600	Cc1cccc2c1n1cncc1c(=O)n2Cc1cccnc1	
840		O=c1c2cncn2c2cc(Cl)ccc2n1Cc1cccnc1	
16	35	Cc1ccc(Cn2c(=O)c3cncn3c3ccccc32)cn1	
295	2150	O=c1c2cncn2c2c(Cl)cccc2n1Cc1cccnc1	
20	120	COc1ccc2c(c1)n(Cc1cccnc1)c(=O)c1cncn12	
15	30	O=c1c2cncn2c2ccccc2n1Cc1cncnc1	
33	55	O=c1c2cncn2c2ccccc2n1Cc1cnccn1	

Further lines, the compound ahead of its results:

SMILES	Ki [1] [nM]	Ki [2] [nM]	other results
O=c1c2cncn2c2ccccc2n1Cc1ccncc1			Activity ([3]; filed as modulator): 62%
COc1cc(Cl)c2c(c1)n(Cc1cccnc1)c(=O)c1cncn12	142	670	
O=c1c2cncn2c2cc(F)c(F)cc2n1Cc1cccnc1			Activity ([3]; filed as modulator): 57%
CCOC(=O)c1ncn2c1c(=O)n(Cc1cccnc1)c1ccccc12	0.3	0.4	
Cc1noc(C)c1Cn1c(=O)c2c(C)ncn2c2ccccc21			Activity ([3]; filed as modulator): 65%
Cc1cc(Cc2ncn3c2c(=O)n(Cc2ccccn2)c2ccccc23)no1	379		
Cc1onc(-c2ccc(F)cc2)c1COc1ccc(C(=O)N2CCS(=O)(=O)CC2)cn1 [BASMISANIL]			Ki [4]: 1210 nM; Ki [5]: 4.4 nM
Cc1ncn2c1c(=O)n(Cc1ccccn1)c1ccccc12	65	16	
Cc1cncc(Cn2c(=O)c3cncn3c3ccccc32)c1	17	60	
O=c1[nH]c2ccccc2n2cncc12			Activity [6]: 53%
O=c1c2cncn2c2ccccc2n1-c1ccccn1			Activity [3]: 7%
Cc1cc(Cn2c(=O)c3cncn3c3ccccc32)no1	56	32	
COc1ccc2c(c1)n1cncc1c(=O)n2Cc1cccnc1			Activity [3]: 18%
COc1cc(Cl)c2c(c1)n(Cc1cnccc1C)c(=O)c1cncn12	687	2100	
O=c1c2c(CO)ncn2c2ccccc2n1Cc1cccnc1	52	100	
CCOC(=O)c1ncn2c1c(=O)n(Cc1cccnc1)c1cccc(Cl)c12	2	7	
Cc1ncc(Cn2c(=O)c3cncn3c3ccccc32)cn1	1.7	3.6	
Cn1c(=O)c2cncn2c2ccccc21	2190		
Cc1cc(Cn2c(=O)c3c(C)ncn3c3ccccc32)no1	30		

SMILES	Ki [1] [nM]	Ki [2] [nM]	other results
CCc1ncn2c1c(=O)n(Cc1ccccn1)c1ccccc12	360		
CCn1c(=O)c2cncn2c2ccccc21	1380		
O=c1c2c(Cl)ncn2c2ccccc2n1Cc1ccccn1	12	5.4	
O=c1c2cncn2c2ccccc2n1Cc1ccccn1	132	52	
Cn1cc(Cn2c(=O)c3cncn3c3ccccc32)cn1	64	123	
Cc1ncn2c1c(=O)n(Cc1cccnc1)c1ccccc12	18	8	
O=c1c2cncn2c2ccccc2n1Cc1ccccc1			Activity ([3]; filed as modulator): 61%
COc1ccc(Cn2c(=O)c3cncn3c3ccccc32)cc1	244		
N#Cc1cccc2c1n1cncc1c(=O)n2Cc1cccnc1			Activity [3]: 0%
N#Cc1ccc(Cn2c(=O)c3cncn3c3ccccc32)cn1			Activity ([3]; filed as modulator): 61%
Cc1ncccc1Cn1c(=O)c2cncn2c2ccccc21	107		
O=C(c1ccc(Cn2c(=O)c3cncn3c3ccccc32)cn1)N1CCOCC1			Activity [3]: 38%
O=c1c2c(CC3CC3)ncn2c2ccccc2n1Cc1ccccn1	80	23	
Cc1ccncc1Cn1c(=O)c2cncn2c2ccccc21	17	60	
O=c1c2cncn2c2ccccc2n1CCc1ccccn1			Activity [3]: 29%
O=c1c2cncn2c2cc(OC(F)(F)F)ccc2n1Cc1cccnc1			Activity ([3]; filed as modulator): 42%
Cc1cc(-c2nnc3c4ccccc4c(OCc4ccccn4)nn23)no1			Ki [4]: 0.4 nM; Ki [5]: 0.5 nM
CN1C(=O)COc2cc(Cn3c(=O)c4cncn4c4ccccc43)ccc21	48	74	
